Test results: patent US12344610B2, “APOL1 inhibitors and methods of use” (Maze Therapeutics, Inc., priority 2022, dated 2025)
Where two headings read alike, the source gives them in different places.

Tests used:
[1] = tested on: Trypanosoma brucei Lister 427 VSG221 with APOL1 G0 recombinant protein; experiment: APOL1 G0 trypanosome cell rescue assay (Example B5); assay type: cell-based; conditions: geometric mean of at least 2 assay runs, † = single assay run
Method in brief: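 Recombinant APOL1 protein, dispensed from a 2 μg/mL stock, and 250 T. brucei per well were co-incubated with test compound (0.4% DMSO) for 20 h. Viability: CellTiter-Glo luminescence.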

[2] = tested on: HEK293 clonal cell line overexpressing APOL1 G1; experiment: APOL1 G1 HEK293 cell rescue assay (Example B3); assay type: cell-based; conditions: geometric mean of at least 2 runs, † = single run, ¥ = concentration at 50% rescue estimated (no sigmoidal curve)
Method in brief: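 Rescue of cell death caused by APOL1 G1 overexpression was measured in a clonal HEK293 line. Compounds were tested in duplicate on one plate, and EC50s were geometric means across at least two runs on different days. Some values are estimated 50%-rescue concentrations where curve fitting failed.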

[3] = Trypanosoma brucei, 20 h, read-out: APOL1 G0 Trypanosome Rescue EC50, Trypanosoma brucei Lister 427 VSG221 with APOL1 G0 recombinant protein, 20 hours, CellTiter-Glo
[4] = Homo sapiens, HEK293, HEK293 clonal line overexpressing APOL1 G1
[5] = read-out: APOL1 G0 Trypanosome Rescue EC50, Trypanosoma brucei Lister 427 VSG221 with APOL1 G0 recombinant protein, 20 hours, CellTiter-Glo
[6] = HEK293 clonal line overexpressing APOL1 G1

Row | Compound | EC50 [2, 4] [nM] | also measured
1 | CC(c1ccc(OCCN2CCC3(CC2)C(=O)Nc2ccc(Cl)cc23)cc1)S(C)(=O)=O (single isomer, unassigned) [Compound 39, 5-chloro-1′-(2-{4-[(1S) or (1R)-1-methanesulfonylethyl]phenoxy}ethyl)-1,2-dihydrospiro[indole-3,4′-piperidin]-2-one] | > 247 | EC50 [1, 3]: 156 nM
2 | O=C1CCc2cc(OCCN3CCC4(CC3)C(=O)Nc3ccc(Cl)cc34)cnc2N1[C@H]1C[C@@H](CO)C1 (single isomer, unassigned) [Compound 319, 5-chloro-1′-[2-({7-oxo-8-[(cis)-3-(hydroxymethyl)cyclobutyl]-5,6,7,8-tetrahydro-1,8-naphthyridin-3-yl}oxy)ethyl]-1,2-dihydrospiro[indole-3,4′-piperidin]-2-one] | 118 | EC50 [1, 3]: 69.7 nM
3 | CC[C@]1(O)C[C@@H](N2C(=O)CCc3cc(OCCN4CCC5(CC4)C(=O)Nc4ccc(Cl)cc45)cnc32)C1 (single isomer, unassigned) [Compound 321, 5-chloro-1′-[2-({7-oxo-8-[(cis)-3-ethyl-3-hydroxycyclobutyl]-5,6,7,8-tetrahydro-1,8-naphthyridin-3-yl}oxy)ethyl]-1,2-dihydrospiro[indole-3,4′-piperidin]-2-one] | 47.7 | EC50 [1, 3]: 39.6 nM
4 | CC1(O)CC(CN2C(=O)CCc3cc(OCCN4CCC5(CC4)C(=O)Nc4ccc(Cl)cc45)cnc32)C1 (single isomer, unassigned) [Compound 322, 5-chloro-1′-{2-[(7-oxo-8-{[(trans) or (cis)-3-hydroxy-3-methylcyclobutyl]methyl}-5,6,7,8-tetrahydro-1,8-naphthyridin-3-yl)oxy]ethyl}-1,2-dihydrospiro[indole-3,4′-piperidin]-2-one] |  | EC50 [1, 5]: 29.3 nM; EC50 [2, 6]: 38.6 nM
5 | C[C@]1(O)C[C@@H](n2ncc3cc(OCCN4CCC5(CC4)C(=O)Nc4ccc(Cl)cc45)cnc32)C1 (single isomer, unassigned) [Compound 357, 5-chloro-1′-[2-({1-[(cis)-3-hydroxy-3-methylcyclobutyl]-1H-pyrazolo[3,4-b]pyridin-5-yl}oxy)ethyl]-1,2-dihydrospiro[indole-3,4′-piperidin]-2-one] | 35.3 | EC50 [1, 3]: 61.2 nM
6 | CC1(O)CC(c2ncc(OCCN3CCC4(CC3)C(=O)Nc3ccc(Cl)cc34)cn2)C1 (single isomer, unassigned) [Compound 393, 5-chloro-1′-[2-({2-[(cis) or (trans)-3-hydroxy-3-methylcyclobutyl]pyrimidin-5-yl}oxy)ethyl]-1,2-dihydrospiro[indole-3,4′-piperidin]-2-one] |  | EC50 [1, 5]: 300 nM; EC50 [2, 6]: 159 nM
7 | C[C@]1(O)C[C@H](n2ncc3cc(OCCN4CCC5(CC4)C(=O)Nc4ccc(Cl)cc45)cnc32)C1 (single isomer, unassigned) [Compound 408, 5-chloro-1′-[2-({1-[(trans)-3-hydroxy-3-methylcyclobutyl]-1H-pyrazolo[3,4-b]pyridin-5-yl}oxy)ethyl]-1,2-dihydrospiro[indole-3,4′-piperidin]-2-one] | 56 | EC50 [1, 3]: 84.8 nM
8 | CC(C)(CO)c1ncc(OCCN2CCC3(CC2)C(=O)Nc2ccc(Cl)cc23)cn1 [Compound 334, 5-chloro-1′-(2-{[2-(1-hydroxy-2-methylpropan-2-yl)pyrimidin-5-yl]oxy}ethyl)-1,2-dihydrospiro[indole-3,4′-piperidin]-2-one] | 269 | 
9 | C[C@]1(O)C[C@@H](n2ccc3cc(OCCN4CCC5(CC4)C(=O)Nc4ccc(C(F)F)cc45)cnc32)C1 [Compound 350, 5-(difluoromethyl)-1′-[2-({1-[(cis)-3-hydroxy-3-methylcyclobutyl]-1H-pyrrolo[2,3-b]pyridin-5-yl}oxy)ethyl]-1,2-dihydrospiro[indole-3,4′-piperidin]-2-one] | 43.9 | 
10 | C[C@]1(O)C[C@@H](n2c(=O)oc3cc(OCCN4CCC5(CC4)C(=O)Nc4ccc(Cl)cc45)cnc32)C1 [Compound 394, 5-chloro-1′-[2-({2-oxo-3-[(cis)-3-hydroxy-3-methylcyclobutyl]-2H,3H-[1,3]oxazolo[4,5-b]pyridin-6-yl}oxy)ethyl]-1,2-dihydrospiro[indole-3,4′-piperidin]-2-one] | 77.7 | 
11 | O=C1Nc2ccc(Cl)cc2C12CCN(CCOc1cnc(N3CC4(CC(O)C4)C3)nc1)CC2 [Compound 396, 5-chloro-1′-{2-[(2-{6-hydroxy-2-azaspiro[3.3]heptan-2-yl}pyrimidin-5-yl)oxy]ethyl}-1,2-dihydrospiro[indole-3,4′-piperidin]-2-one] | 85 | 
12 | CC(CO)(c1ncc(OCCN2CCC3(CC2)C(=O)Nc2ccc(Cl)cc23)cc1C(F)(F)F)S(C)(=O)=O (stereo not shown) [Compound 401, 5-chloro-1′-(2-{[6-(1-hydroxy-2-methanesulfonylpropan-2-yl)-5-(trifluoromethyl)pyridin-3-yl]oxy}ethyl)-1,2-dihydrospiro[indole-3,4′-piperidin]-2-one] | 68.2 | 
13 | CC(C)(O)c1ncc(OCCN2CCC3(CC2)C(=O)Nc2ccc(C#N)cc23)cc1C(F)(F)F [Compound 411, 1′-(2-{[6-(2-hydroxypropan-2-yl)-5-(trifluoromethyl)pyridin-3-yl]oxy}ethyl)-2-oxo-1,2-dihydrospiro[indole-3,4′-piperidine]-5-carbonitrile] | 55.6 | 
14 | C[C@]1(O)C[C@@H](n2cnc3cc(OCCN4CCC5(CC4)C(=O)Nc4ccc(C#N)cc45)cc(C(F)(F)F)c32)C1 [Compound 433, 1′-(2-((1-((cis)-3-hydroxy-3-methylcyclobutyl)-7-(trifluoromethyl)-1H-benzo[d]imidazol-5-yl)oxy)ethyl)-2-oxospiro[indoline-3,4′-piperidine]-5-carbonitrile] | 29.6 | 
15 | C[C@]1(O)C[C@@H](n2nnc3cc(OCCN4CCC5(CC4)C(=O)Nc4ccc(Cl)cc45)cc(C(F)(F)F)c32)C1 [Compound 434, 5-chloro-1′-[2-({1-[(cis)-3-hydroxy-3-methylcyclobutyl]-7-(trifluoromethyl)-1H-1,2,3-benzotriazol-5-yl}oxy)ethyl]-1,2-dihydrospiro[indole-3,4′-piperidin]-2-one] | 14.8 | 
16 | Cc1nc2cc(OCCN3CCC4(CC3)C(=O)Nc3ccc(Cl)cc34)cc(C(F)(F)F)c2n1[C@H]1C[C@@](C)(O)C1 [Compound 442, 5-chloro-1′-[2-({2-methyl-1-[(cis)-3-hydroxy-3-methylcyclobutyl]-7-(trifluoromethyl)-1H-1,3-benzodiazol-5-yl}oxy)ethyl]-1,2-dihydrospiro[indole-3,4′-piperidin]-2-one] | 15.6 | 
17 | Cc1nc2cc(OCCN3CCC4(CC3)C(=O)Nc3ccc(C#N)cc34)cc(C(F)(F)F)c2n1[C@H]1C[C@@](C)(O)C1 [Compound 443, 1′-[2-({2-methyl-1-[(cis)-3-hydroxy-3-methylcyclobutyl]-7-(trifluoromethyl)-1H-1,3-benzodiazol-5-yl}oxy)ethyl]-2-oxo-1,2-dihydrospiro[indole-3,4′-piperidine]-5-carbonitrile] | 30.8 | 
18 | C[C@]1(O)C[C@@H](n2cnc3cc(OCCN4CCC5(CC4)C(=O)Nc4ccc(C(F)F)cc45)cc(C(F)(F)F)c32)C1 [Compound 450, 5-(difluoromethyl)-1′-[2-({1-[(cis)-3-hydroxy-3-methylcyclobutyl]-7-(trifluoromethyl)-1H-1,3-benzodiazol-5-yl}oxy)ethyl]-1,2-dihydrospiro[indole-3,4′-piperidin]-2-one] | 14.9 | 
